Data: ChEMBL document CHEMBL1201862, “PubChem BioAssay data set” (2004)
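Compound exposure: 48 hours, 5 concentrations, 96-well plates. The concentration for 50% growth inhibition is given as GI50.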 The source made the active and inactive calls. Cut-off read from the data, not from the text of the source: active = GI50 up to about 1.1 µM and inactive = higher.

Columns and labels:
Experiment in all cases: NCI anticancer screen, dose series, 48 h
786-0 = system: 786-0
A498 = system: A498
A549 = system: A549
ACHN = system: ACHN
BT-549 = system: BT-549
CAKI-1 = system: CAKI-1
CCRF-CEM = system: CCRF-CEM
COLO 205 = system: COLO 205
DU-145 = system: DU-145
EKVX = system: EKVX
HCC 2998 = system: HCC 2998
HCT-116 = system: HCT-116
HCT-15 = system: HCT-15
HL-60 = system: HL-60
HOP-62 = system: HOP-62
HOP-92 = system: HOP-92
HT-29 = system: HT-29
Hs-578T = system: Hs-578T
IGROV-1 = system: IGROV-1
K562 = system: K562
KM12 = system: KM12
LOX IMVI = system: LOX IMVI
M14 = system: M14
MCF7 = system: MCF7
MDA-MB-231 = system: MDA-MB-231
MDA-MB-435 = system: MDA-MB-435
MDA-N = system: MDA-N
MOLT-4 = system: MOLT-4
Malme-3M = system: Malme-3M
NCI-H226 = system: NCI-H226
NCI-H23 = system: NCI-H23
NCI-H460 = system: NCI-H460
NCI-H522 = system: NCI-H522
NCI/ADR-RES = system: NCI/ADR-RES
OVCAR-3 = system: OVCAR-3
OVCAR-4 = system: OVCAR-4
OVCAR-5 = system: OVCAR-5
OVCAR-8 = system: OVCAR-8
PC-3 = system: PC-3
RPMI-8226 = system: RPMI-8226
RXF 393 = system: RXF 393
SF-268 = system: SF-268
SF-295 = system: SF-295
SF-539 = system: SF-539
SK-MEL-28 = system: SK-MEL-28
SK-MEL-2 = system: SK-MEL-2
SK-MEL-5 = system: SK-MEL-5
SK-OV-3 = system: SK-OV-3
SN12C = system: SN12C
SNB-19 = system: SNB-19
SNB-75 = system: SNB-75
SR = system: SR
SW-620 = system: SW-620
T47D = system: T47D
TK-10 = system: TK-10
U-251 = system: U-251
UACC-257 = system: UACC-257
UACC-62 = system: UACC-62
UO-31 = system: UO-31

Structure (SMILES): O=C(O)CC(CC(=O)O)C(=O)O [TRICARBALLYLIC ACID]
- GI50 (786-0): > 100 µM (inactive)
- GI50 (A498): > 100 µM (inactive)
- GI50 (A549): > 100 µM (inactive)
- GI50 (ACHN): > 100 µM (inactive)
- GI50 (BT-549): > 100 µM (inactive)
- GI50 (CAKI-1): > 100 µM (inactive)
- GI50 (CCRF-CEM): > 100 µM (inactive)
- GI50 (COLO 205): > 100 µM (inactive)
- GI50 (DU-145): > 100 µM (inactive)
- GI50 (EKVX): > 100 µM (inactive)
- GI50 (HCC 2998): > 100 µM (inactive)
- GI50 (HCT-116): > 100 µM (inactive)
- GI50 (HCT-15): > 100 µM
- GI50 (HL-60): > 100 µM (inactive)
- GI50 (HOP-62): > 100 µM (inactive)
- GI50 (HOP-92): > 100 µM (inactive)
- GI50 (HT-29): > 100 µM (inactive)
- GI50 (Hs-578T): > 100 µM (inactive)
- GI50 (IGROV-1): > 100 µM (inactive)
- GI50 (K562): > 100 µM (inactive)
- GI50 (KM12): > 100 µM (inactive)
- GI50 (LOX IMVI): > 100 µM (inactive)
- GI50 (M14): > 100 µM (inactive)
- GI50 (MCF7): > 100 µM (inactive)
- GI50 (MDA-MB-231): > 100 µM (inactive)
- GI50 (MDA-MB-435): > 100 µM (inactive)
- GI50 (MDA-N): > 100 µM (inactive)
- GI50 (MOLT-4): > 100 µM (inactive)
- GI50 (Malme-3M): > 100 µM (inactive)
- GI50 (NCI-H226): > 100 µM (inactive)
- GI50 (NCI-H23): > 100 µM (inactive)
- GI50 (NCI-H460): > 100 µM (inactive)
- GI50 (NCI-H522): > 100 µM (inactive)
- GI50 (NCI/ADR-RES): > 100 µM (inactive)
- GI50 (OVCAR-3): > 100 µM (inactive)
- GI50 (OVCAR-4): > 100 µM (inactive)
- GI50 (OVCAR-5): > 100 µM (inactive)
- GI50 (OVCAR-8): > 100 µM (inactive)
- GI50 (PC-3): > 100 µM (inactive)
- GI50 (RPMI-8226): > 100 µM (inactive)
- GI50 (RXF 393): > 100 µM (inactive)
- GI50 (SF-268): > 100 µM (inactive)
- GI50 (SF-295): > 100 µM (inactive)
- GI50 (SF-539): > 100 µM (inactive)
- GI50 (SK-MEL-28): > 100 µM (inactive)
- GI50 (SK-MEL-2): > 100 µM (inactive)
- GI50 (SK-MEL-5): > 100 µM (inactive)
- GI50 (SK-OV-3): > 100 µM (inactive)
- GI50 (SN12C): > 100 µM (inactive)
- GI50 (SNB-19): > 100 µM (inactive)
- GI50 (SNB-75): > 100 µM (inactive)
- GI50 (SR): > 100 µM (inactive)
- GI50 (SW-620): > 100 µM (inactive)
- GI50 (T47D): > 100 µM (inactive)
- GI50 (TK-10): > 100 µM (inactive)
- GI50 (U-251): > 100 µM (inactive)
- GI50 (UACC-257): > 100 µM (inactive)
- GI50 (UACC-62): > 100 µM (inactive)
- GI50 (UO-31): > 100 µM (inactive)

Structure (SMILES): O=C1c2c(Br)sc(Br)c2[C@@H](NC(=O)C(F)(F)F)C1Br (some centres not stated)
- GI50 (786-0): 2.13 µM (inactive)
- GI50 (A498): 15.3 µM (inactive)
- GI50 (A549): 17.1 µM (inactive)
- GI50 (ACHN): 2.5 µM (inactive)
- GI50 (BT-549): 3.03 µM (inactive)
- GI50 (CAKI-1): 3.6 µM (inactive)
- GI50 (CCRF-CEM): 1.88 µM (inactive)
- GI50 (COLO 205): 2.01 µM (inactive)
- GI50 (DU-145): 6.71 µM (inactive)
- GI50 (EKVX): 3.57 µM (inactive)
- GI50 (HCC 2998): 3.1 µM (inactive)
- GI50 (HCT-15): 1.83 µM
- GI50 (HL-60): 0.631 µM (active)
- GI50 (HOP-62): 12.9 µM (inactive)
- GI50 (HOP-92): 2.3 µM (inactive)
- GI50 (HT-29): 2.37 µM (inactive)
- GI50 (Hs-578T): 7.94 µM (inactive)
- GI50 (IGROV-1): 2.92 µM (inactive)
- GI50 (K562): 1.93 µM (inactive)
- GI50 (KM12): 5.66 µM (inactive)
- GI50 (LOX IMVI): 1.57 µM (inactive)
- GI50 (M14): 2.34 µM (inactive)
- GI50 (MCF7): 5.71 µM (inactive)
- GI50 (MDA-MB-231): 2.79 µM (inactive)
- GI50 (MDA-MB-435): 2.13 µM (inactive)
- GI50 (MDA-N): 2.87 µM (inactive)
- GI50 (MOLT-4): 2.2 µM (inactive)
- GI50 (Malme-3M): 2.24 µM (inactive)
- GI50 (NCI-H226): 5.53 µM (inactive)
- GI50 (NCI-H23): 2.53 µM (inactive)
- GI50 (NCI-H460): 11.7 µM (inactive)
- GI50 (NCI-H522): 2.03 µM (inactive)
- GI50 (NCI/ADR-RES): 3.32 µM (inactive)
- GI50 (OVCAR-3): 3.32 µM (inactive)
- GI50 (OVCAR-4): 2.31 µM (inactive)
- GI50 (OVCAR-5): 10.7 µM (inactive)
- GI50 (OVCAR-8): 2.68 µM (inactive)
- GI50 (PC-3): 4.3 µM (inactive)
- GI50 (RPMI-8226): 2.33 µM (inactive)
- GI50 (RXF 393): 2.14 µM (inactive)
- GI50 (SF-268): 3.71 µM (inactive)
- GI50 (SF-295): 16.8 µM (inactive)
- GI50 (SF-539): 2.73 µM (inactive)
- GI50 (SK-MEL-28): 3.05 µM (inactive)
- GI50 (SK-MEL-2): 5.82 µM (inactive)
- GI50 (SK-MEL-5): 2.8 µM (inactive)
- GI50 (SK-OV-3): 18.7 µM (inactive)
- GI50 (SN12C): 2.72 µM (inactive)
- GI50 (SNB-19): 13 µM (inactive)
- GI50 (SNB-75): 4.92 µM (inactive)
- GI50 (SR): 2.07 µM (inactive)
- GI50 (SW-620): 2.7 µM (inactive)
- GI50 (T47D): 4.11 µM (inactive)
- GI50 (TK-10): 16.8 µM (inactive)
- GI50 (U-251): 2.93 µM (inactive)
- GI50 (UACC-257): 1.51 µM (inactive)
- GI50 (UACC-62): 3.66 µM (inactive)
- GI50 (UO-31): 5.92 µM (inactive)
